Data published in patent US20160297828A1, “SPIROCYCLIC COMPOUNDS CONTAINING SPIRO[INDOLYL-3,1'-PYRROLO[3,4-C]PYRROLE] CORE AND SULPHUR-CONTAINING AMINO ACID RESIDUES” (priority 2013, published 2016).
Marks after values point to notes of the source that are not given here.

Experiments:
[1] = tested on: neuron-specific enolase (NSE); experiment: Neuron-specific enolase (NSE) activity in rats with bilateral carotid occlusion (ELISA); format: in vivo; details: BCO; for NSE activity (dynamics of neurodestructive changes): n = 7
Protocol: The derivative of 3,2′-spiro-pyrrolo-2-oxindole was studied in conventionally effective dose of 10 mg/kg […] (iv)—dose that by the results of our previous study provided maximum antihypoxic activity of the SI-86compound. Reference drugs were injected intraperitoneally (ip). […] BCO was made to rats of control pathology and as therapy 0.9% NaCI solution was administered calculated for 2 ml/kg ip.
Pseudooperative rats were exposed to all interventions (anesthesia, skin incision, dissection of vessels) except arteries ligation that leveled traumatic effect of experimental conditions.
To determine neurospecific enolase, specific marker of cerebral ischemia,—to the period (4 th and 21 st day of CVA) in rat's blood was sampled by sagittal sinus puncture (0.2-0.4 ml). NSE activity was measured by ELISA using a set NSE EIA KIT (DAI, USA) on the instrument of the company “Hipson” (Czech Republic).

[2] = tested on: rats; experiment: Acute normobaric hypoxic hypoxia with hypercapnia (ANHHH), life duration; format: in vivo; details: preventive administration; SI-86 and SI-108 10 mg/kg iv, mexydol 100 mg/kg ip
Protocol: The study of antihypoxic activity of 10 original derivatives of 3,2′-spiro-pyrrolo-2-oxindole was conducted on models of acute normobaric hypoxic hypoxia with hypercapnia (ANHHH) and acute asphyxia. ANHHH was modeled by means of rat arrangement into isolated pressure compartments (0.001 m^3). The observation conducted until the death of the animals. The antihypoxic activity was assessed by life duration (in minutes) in relation to the control taken as 100%, by the formula AA=tt/tk×100%, wherein AA—antihypoxic activity (%), tt—life duration of test animals, tc—life duration of control animals.
(§1) The preliminary screening of test substances was performed on ANHHH model. All derivatives were administered in the same dose of 10 mg/kg […] (iv) 1 hour prior to pathological state modeling. […] The effectiveness of a leader compound was evaluated at doses 5; 10 and 15 mg/kg iv. Mexydol was chosen as a reference drug having antihypoxic action in combination with antioxidant and membrane protective activity, which is successfully used in patients with CVA and IM. Mexydol was administered intraperitoneally (ip) at a dose of 100 mg/kg according to similar scheme.

[3] = tested on: rat heart bioelectrical activity; experiment: Acute asphyxia, duration of heart bioelectrical activity; format: in vivo, rats
Protocol: Acute asphyxia was modeled in rats anesthetized with propofol (60 mg/kg) intraperitoneally (ip) by complete clamping the trachea at electrocardiogram (EGC) registration. The antihypoxic effect was evaluated by duration of heart bioelectric activity (HBA). This model allows to estimate the heart sensitivity to hypoxia. An isoelectric ECG line for 1 minute considered as HBA termination, the pint of HBA termination corresponded to the last QRS complex on the ECG. The calculation of […] activity was performed by the above formula considering a point of last QRS complex registration as a lifetime.
as §1

## CSCC[C@@H]1N[C@@]2(C(=O)Nc3ccccc32)[C@@H]2C(=O)N(c3ccc(C)cc3)C(=O)[C@H]12 [SI-86, 5′-(4-Methylphenyl)-3′-[2-(methylthio)ethyl]-3a′,6a′-dihydro-2′H-spiro[indole-3,1′-pyrrolo[3,4-c]pyrrol]-2,4′,6′(1H,3′H,5′H)-trione]
[1]; 96 hours
  enzyme activity decreased in relation to the control pathology group: 2.03 times
[1]; 21 days
  enzyme activity decreased in relation to the control pathology group: 3.84 times
[1]; acute period
  effectiveness in reducing NSE better than citocoline: 1.6 times
[1]; day 4, SI-86 10 mg/kg iv, citocoline 250 mg/kg ip
  NSE activity (dynamics of neurodestructive changes): 0.61 ± 0.004*^#•
[1]; day 21, same doses
  NSE activity (dynamics of neurodestructive changes): 0.204 ± 0.015*^#•
[1]; recovery period
  effectiveness in reducing NSE better than citocoline: 1.9 times
[2]
  increase of life duration in rats in relation to control: 33.7%
[3]; 5 mg/kg iv
  Antihypoxic activity: +12.1%
  Duration of heart bioelectrical activity: 13.0 ± 1.5 min
[3]; 10 mg/kg iv
  Antihypoxic activity: +5.8%
  Duration of heart bioelectrical activity: 12.3 ± 1.4 min
[3]; 15 mg/kg iv
  Antihypoxic activity: −2.8%
  Duration of heart bioelectrical activity: 11.3 ± 1.0 min
